The text below walks through data of US20240190890A1, “MK2 INHIBITORS AND USES THEREOF” (Bristol-Myers Squibb Company, priority 2022, published 2024).

What is called IC50 is the concentration that gives 50% inhibition.

This experiment deals with p38a activated, mitogen-activated protein kinase-activated protein kinase 2 (MAPKAP-K2 or MK2) enzyme (Homo sapiens (Human), UniProt P49137). Briefly: MK2 Omnia continuous-read kinase assay for compound potency. In kind it is biochemical. The conditions noted are these: [MK-2]=0.4 nM, [ATP]=10 μM, [ST3-Sox]=10 μM; room temperature. The procedure, abridged: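 Continuous Sox-peptide fluorescence read (ex360/em485) every 71 s over 2 h at room temperature. Reactions: 10 μM each of ATP (at apparent Km) and S/T3-Sox, 0.4 nM p38a-activated MK2, pH 7.5 Tris/MgCl2 buffer. Initial rates yield % inhibition and IC50; single-exponential kobs values yield apparent kinact/KI.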
p38a activated, mitogen-activated protein kinase-activated protein kinase 2 (MAPKAP-K2 or MK2) enzyme, sequence (P49137 whole entry): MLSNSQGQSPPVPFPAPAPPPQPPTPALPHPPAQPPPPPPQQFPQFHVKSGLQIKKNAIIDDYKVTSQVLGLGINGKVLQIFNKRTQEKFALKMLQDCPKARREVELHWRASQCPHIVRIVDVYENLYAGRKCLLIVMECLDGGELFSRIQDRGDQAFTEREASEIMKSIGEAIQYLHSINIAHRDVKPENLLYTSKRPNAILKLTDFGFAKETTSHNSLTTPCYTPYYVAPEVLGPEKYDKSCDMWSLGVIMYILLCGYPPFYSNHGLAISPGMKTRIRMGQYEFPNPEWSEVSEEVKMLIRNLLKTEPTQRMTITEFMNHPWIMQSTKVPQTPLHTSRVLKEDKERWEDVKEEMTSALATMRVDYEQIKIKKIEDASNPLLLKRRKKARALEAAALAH
`C#Cc1cc(-c2ccc3c(ccc4sc5c(c43)NC[C@@H](C)NC5=O)n2)nc(C#CC(C)(C)N)n1` [Example I-67, (R)-3-(2-(3-amino-3-methylbut-1-yn-1-yl)-6-ethynylpyrimidin-4-yl)-10-methyl-9,10,11,12-tetrahydro-8H-[1,4]diazepino[5′,6′:4,5]thieno[3,2-f]quinolin-8-one]: the IC50 was 38 nM.
On to `C[C@@H]1CNc2c(sc3ccc4nc(-c5cc(Cl)nc(Cl)c5)ccc4c23)C(=O)N1` [Example I-68, (R)-3-(2,6-dichloropyridin-4-yl)-10-methyl-9,10,11,12-tetrahydro-8H-[1,4]diazepino[5′,6′:4,5]thieno[3,2-f]quinolin-8-one], for which the IC50 turned out to be 472 nM.
Next, `C[C@@H]1CNc2c(sc3ccc4nc(-c5cc(Cl)ncc5F)ccc4c23)C(=O)N1` [Example I-69, (R)-3-(2-chloro-5-fluoropyridin-4-yl)-10-methyl-9,10,11,12-tetrahydro-8H-[1,4]diazepino[5′,6′:4,5]thieno[3,2-f]quinolin-8-one]: 27 nM.
`C=Cc1cc(-c2ccc3c(ccc4sc5c(c43)NC[C@@H](C)NC5=O)n2)c(F)cn1` [Example I-70, (R)-3-(5-fluoro-2-vinylpyridin-4-yl)-10-methyl-9,10,11,12-tetrahydro-8H-[1,4]diazepino[5′,6′:4,5]thieno[3,2-f]quinolin-8-one]: the IC50 came out at 64 nM.
Regarding `C#Cc1cc(-c2ccc3c(ccc4sc5c(c43)NC[C@@H](C)NC5=O)n2)c(F)cn1` [Example I-71, (R)-3-(2-ethynyl-5-fluoropyridin-4-yl)-10-methyl-9,10,11,12-tetrahydro-8H-[1,4]diazepino[5′,6′:4,5]thieno[3,2-f]quinolin-8-one], the IC50 is 39 nM.
As for `C=Cc1cc(-c2ccc3c(ccc4sc5c(c43)NC[C@@H](C)NC5=O)n2)cc(Cl)n1` [Example I-72, (R)-3-(2-chloro-6-vinylpyridin-4-yl)-10-methyl-9,10,11,12-tetrahydro-8H-[1,4]diazepino[5′,6′:4,5]thieno[3,2-f]quinolin-8-one], the IC50 came out at 58 nM.
On to `C#Cc1cc(-c2ccc3c(ccc4sc5c(c43)NC[C@@H](C)NC5=O)n2)cc(Cl)n1` [Example I-73, (R)-3-(2-chloro-6-ethynylpyridin-4-yl)-10-methyl-9,10,11,12-tetrahydro-8H-[1,4]diazepino[5′,6′:4,5]thieno[3,2-f]quinolin-8-one], for which the half-maximal inhibitory concentration (IC50) stood at 75 nM.
Take `C[C@@H]1CNc2c(sc3ccc4nc(-c5cc(Cl)nc(CO)n5)ccc4c23)C(=O)N1` [Example I-74, (R)-3-(6-chloro-2-(hydroxymethyl)pyrimidin-4-yl)-10-methyl-9,10,11,12-tetrahydro-8H-[1,4]diazepino[5′,6′:4,5]thieno[3,2-f]quinolin-8-one]: the IC50 stood at 4 nM.
Next, `C[C@@H]1CNc2c(sc3ccc4nc(-c5nc(Cl)ncc5CO)ccc4c23)C(=O)N1` [Example I-75, (R)-3-(2-chloro-5-(hydroxymethyl)pyrimidin-4-yl)-10-methyl-9,10,11,12-tetrahydro-8H-[1,4]diazepino[5′,6′:4,5]thieno[3,2-f]quinolin-8-one]: 470 nM.
For `C=Cc1cc(-c2ccc3c(ccc4sc5c(c43)NC[C@@H](C)NC5=O)n2)nc(CO)n1` [Example I-76, (R)-3-(2-(hydroxymethyl)-6-vinylpyrimidin-4-yl)-10-methyl-9,10,11,12-tetrahydro-8H-[1,4]diazepino[5′,6′:4,5]thieno[3,2-f]quinolin-8-one] the value was 1 nM; for `C=Cc1ncc(CO)c(-c2ccc3c(ccc4sc5c(c43)NC[C@@H](C)NC5=O)n2)n1` [Example I-77, (R)-3-(5-(hydroxymethyl)-2-vinylpyrimidin-4-yl)-10-methyl-9,10,11,12-tetrahydro-8H-[1,4]diazepino[5′,6′:4,5]thieno[3,2-f]quinolin-8-one], 13 nM.
